A short description of series [1]: Zootechnical efficacy of ferric citrate in milk replacer for rearing calves: body weight, feed intake, gain, FCR (Example 11). Conditions: milk replacer: T1 Fe(II) sulfate 85 g Fe/tonne, T2 plus ferric citrate 500 g/tonne feed. In kind it is in vivo, rearing calves (German Holstein). How it is done:
The composition of the basal calf milk replacer is shown in Table 36, and the feeding schedule in Table 37.
The milk replacer was dissolved in warm water at around 50° C. The concentration was 125 grams per liter. The drinking temperature was kept at 38 to 40° C.
Additionally, a commercial calf starter feed (mash) without phytogenics, probiotics, organic acids or enzymes was provided. Straw was also provided in pre-weighed amounts throughout the 56 day feeding period.

A short description of series [2]: Calf health scoring: body temperature, faeces quality, coughing, nasal discharge, antibiotic treatments (Example 11). As for the experimental part: A study was performed to evaluate the potential of ferric citrate (CI-PLEX™ CHELATE) to improve calf health, welfare, and performance. A total of 80 rearing calves (German Holstein) were used from d 12 to d 68 of age. 40 calves were fed a basal milk replacer (T1 Control). For comparison, 40 calves were fed the basal milk replacer with addition of ferric (III) citrate (T2 CI-PLEX™ CHELATE, 500 g/tonne feed) with a microtracer present at a rate of 10%, equivalent to 50 g/tonne for product identification purposes only. The basal milk replacer was supplemented with ferrous (II) sulfate at normal commercial rates (supplying 85 g Fe/tonne feed). T2 was also supplemented with normal commercial practice of Fe (ferrous (II) sulfate at 85 g Fe/tonne feed) with Fe at 85 g/tonne feed from the ferric (III) citrate (CI-PLEX™ CHELATE). […] The basal milk replacer batch was produced, and then split into 2 aliquots prior to adding the different inorganic or organic Fe sources to T1, and T2 diets. Calves were housed in rearing units, each unit with pens on either side of a central aisle.
The following parameters were measured: mean pen body weight (BW), feed intake (FI), body weight gain (BWG), feed conversion ratio (FCR, feed:gain) at study start and on days 7, 14, 21, 28, 35, 42, 49 and 56 days on trial. In addition, the following were also recorded: body temperature, faeces quality, coughing score, and nasal discharge.
The scoring of faecal consistency and of rectal temperature, coughing, nasal discharge as well as eye and ear scores were ranked daily.

In series [3] the test system is Pseudomonas aeruginosa PAO-1 strain. Conditions: 72 hours.
Protocol: Pseudomonas aeruginosa PAO-1 strain was routinely grown on either LB (Luria-Bertani, Oxoid, UK) agar plates at 37° C. or in broth at 37° C. with 200 rpm shaking. UV-sterilized glass slides were incubated in either 15 mL RPMI-1640 defined medium (Sigma, UK) or 15 mL RPMI-1640 with Fe-Lac inoculated with diluted (OD600=0.01) bacteria from overnight cultures at 37° C. with 60 rpm shaking for 72 hours. The slides were removed from bacterial culture and washed with 15 mL phosphate buffered saline at room temperature for 5 minutes three times and then rinsed with distilled H2O. After washing, the slides were stained with 20 μM SYTO17 dye (Invitrogen, UK) at room temperature for 30 minutes. After removing excess staining dye and air-drying, the samples were examined using a Carl Zeiss LSM 700 Laser Scanning Microscope with ZEN 2009 imaging software (Carl Zeiss, Germany). The coverage rate of bacteria on the surface was analysed using open source Image J 1.44 software (National Institute of Health, US).
Pseudomonas aeruginosa PAO-1 strain was routinely grown on either LB (Luria-Bertani, Oxoid, UK) agar plates at 37° C. or in broth at 37° C. with 200 rpm shaking. UV-sterilized glass slides were incubated in either 15 mL RPMI-1640 defined medium (Sigma, UK) or 15 mL RPMI-1640 with Fe-Cit inoculated with diluted (OD600=0.01) bacteria from overnight cultures at 37° C. with 60 rpm shaking for 72 hours. The slides were removed from bacterial culture and washed with 15 mL phosphate buffered saline at room temperature for 5 minutes three times and then rinsed with distilled H2O. After washing, the slides were stained with 20 μM SYTO17 dye (Invitrogen, UK) at room temperature for 30 minutes. After removing excess staining dye and air-drying, the samples were examined using a Carl Zeiss LSM 700 Laser Scanning Microscope with ZEN 2009 imaging software (Carl Zeiss, Germany). The coverage rate of bacteria on the surface was analysed using open source Image J 1.44 software (National Institute of Health, US).
Pseudomonas aeruginosa PAO-1 strain was routinely grown on either LB (Luria-Bertani, Oxoid, UK) agar plates at 37° C. or in broth at 37° C. with 200 rpm shaking. […] The slides were removed from bacterial culture and washed with 15 mL phosphate buffered saline at room temperature for 5 minutes three times and then rinsed with distilled H2O. After washing, the slides were stained with 20 μM SYTO17 dye (Invitrogen, UK) at room temperature for 30 minutes. After removing excess staining dye and air-drying, the samples were examined using a Carl Zeiss LSM 700 Laser Scanning Microscope with ZEN 2009 imaging software (Carl Zeiss, Germany). The coverage rate of bacteria on the surface was analysed using open source Image J 1.44 software (National Institute of Health, US).
Pseudomonas aeruginosa PAO-1 strain was routinely grown on either LB (Luria-Bertani, Oxoid, UK) agar plates at 37° C. or in broth at 37° C. with 200 rpm shaking. UV-sterilized glass slides were incubated in either 15 mL RPMI-1640 defined medium (Sigma, UK) or 15 mL RPMI-1640 with Fe-Gly inoculated with diluted (OD600=0.01) bacteria from overnight cultures at 37° C. with 60 rpm shaking for 72 hours. The slides were removed from bacterial culture and washed with 15 mL phosphate buffered saline at room temperature for 5 minutes three times and then rinsed with distilled H2O. […] The coverage rate of bacteria on the surface was analysed using open source Image J 1.44 software (National Institute of Health, US).
Setting [4] is: Score 0: normal, 1: slightly disorder, 2: middle disorder, 3: severe disorder.

Molecules are shown by their SMILES. Read-outs that look alike come from different tables or passages of the source. Marks after values point to notes of the source that are not given here.

Regarding `O=S(=O)([O-])[O-].[Fe+2]` [Fe (II)sulfate], in series [1], the “ADFI 1-21 d of rearing” value was found to be 804 ± 38 g, the “ADFI 1-56 d of rearing” value amounted to 1.49 ± 0.02 kg, the “ADFI 22-56 d of rearing” value is 1.90 ± 0.02 kg and the “ADG 1-21 d of rearing” value is 268 ± 30^a g. For the same compound, in series [1], the “ADG 1-56 d of rearing” value is given as 723 ± 36^a g, the “ADG 22-56 d of rearing” value is 792 ± 48^a g, the “FCR 1-21 d of rearing” value is reported as 1.339 ± 0.142^a feed:gain and the “FCR 1-56 d of rearing” value is 2.065 ± 0.100^a feed:gain. Further, in series [1], the “FCR 22-56 d of rearing” value is given as 2.408 ± 0.148^a feed:gain and the “Mean BW at d 56 of rearing” value is 91.9 ± 2.0^a kg. Besides, in series [2] (setting [4]), the “Mean daily body temperature score 1-56 d of rearing” value was 0.09 ± 0.11^a, the “Mean daily coughing score 1-56 d of rearing” value is reported as 0.51 ± 0.13, the “Mean daily ear score 1-56 d of rearing” value was 0.04 ± 0.07 and the “Mean daily eye score 1-56 d of rearing” value worked out at 0.04 ± 0.07. Moreover, in series [2] (setting [4]), the “Mean daily faecal score 1-56 d of rearing” value is recorded as 0.68 ± 0.14 and the “Mean daily nasal discharge score 1-56 d of rearing” value amounted to 0.44 ± 0.12. In addition, in series [2] (bovine, in vivo), the “% excluded, 1-56 d of rearing” value is reported as 0% and the “No calves excluded, 1-56 d of rearing” value turned out to be 1. In series [2] (of 40 calves per treatment), the “No calves treated with antibiotics, 1-56 d of rearing” value is recorded as 3.

Consider `NCC(=O)[O-].NCC(=O)[O-].NCC(=O)[O-].[Fe+3]` [Fe-Gly, Ferric glycinate], for which the “biofilm formation (coverage rate on glass slide)” value in series [3] (300 μM) is “able to inhibit biofilm formation”; in series [3] (100 and 300 μM), “inhibits the formation of biofilm”.

The values above are taken from patent US10653658B2, “Biofilm inhibiting compositions enhancing weight gain in livestock” (Akeso Biomedical, Inc., priority 2015, dated 2020).
